Patent publication US20080057534A1, “Microbe-sensitive indicators and use of the same” (Kimberly-Clark Worldwide, Inc., priority 2006, published 2008)

Columns and labels:
[1] = system: microbe contamination; experiment: Microbe-insensitivity of signal graphic colorants
[2] = system: aged chicken juice; experiment: Dye spots on woven cotton fabric, aged chicken juice
Excerpt: A transparent film covering half of a fresh chicken on a polystyrene tray (from supermarket) was stored at room temperature for three weeks. The pale yellow juices that collected in the polystyrene tray were collected using a pipette and used for tests.
A 47-mg quantity of 1-docosyl-4-(4-hydroxystyryl)-pyridinium bromide (from Aldrich Chemical) was mixed with 10 g dimethylformamide. A small amount of solids remained after shaking and settling. The orange supernatant fluid was dropped onto woven cotton fabric of basis weight (29.2 cm×20.3 cm=6.888 g) to make orange-yellow colored circles. One drop of 1N sodium hydroxide solution was added to one orange-yellow spot on the cotton fabric, changing the color from orange-yellow to a pinkish orange.
The color change was rapid on cotton.

[3] = system: bacteria and other microbes in aged urine; experiment: Merocyanine dye coated paper towel, aged female human urine
Description: Female human urine was collected and stored in a glass jar at room temperature for 8 days. N-methyl merocyanine dye of the structure below was synthesized as described above. A 0.5-g quantity of the dye was dissolved in 20 ml deionized water and coated onto a SCOTT® kitchen roll paper towel by dipping the towel into the solution, allowing the excess to drip off, and then allowing the coated toweling to dry at ambient conditions. The paper towel was stained a deep orange color by the dye.
As a control, the aged urine was filtered through a 0.2 micron filter to remove bacteria and other microbes.
Female human urine was collected and stored for 24 hours at 37° C. Pooled female urine may be expected to have a bacterial loading of approximately 1×10^5 CFU/ml after storage under these conditions. A 0.5-g quantity of N-methyl merocyanine dye, synthesized as described above, was dissolved in 20 ml deionized water and coated onto a SCOTT® kitchen roll paper towel by dipping the towel into the solution, allowing the excess to drip off, and then allowing the coated toweling to dry at ambient conditions. The paper towel was stained a deep orange color by the dye.

[4] = system: budgie feces suspension in tap water; experiment: Merocyanine dye coated paper towel, budgerigar feces suspension; conditions: coated SCOTT towel, drops of suspension
Description: Budgerigar feces was collected from a caged pet budgie, and shaken in approximately 10 ml of Atlanta city domestic tap water. A 0.5-g quantity of N-methyl merocyanine dye, synthesized as described above, was dissolved in 20 ml deionized water and coated onto a SCOTT® kitchen roll paper towel by dipping the towel into the solution, allowing the excess to drip off, and then allowing the coated toweling to dry at ambient conditions. The paper towel was stained a deep orange color by the dye. […] As a control, Atlanta city domestic tap water was dropped onto a different area of the towel and while the color was diluted somewhat by the water, the area remained orange.

[5] = system: E. coli (ATCC #8739); experiment: Reichardt's dye coated paper, response to bacterial contamination; conditions: paper brush-coated with 80 mg/10 mL acetonitrile; 100 μL aliquots of 10^7 to 10^4 CFU/mL
Description: (§1) This experiment illustrated the ability of a surface coating of Reichardt's dye to respond to bacterial contamination. A sheet of paper was brush-coated with a Reichardt's dye solution (80 mg/10 mL acetonitrile). To this paper was added 100 μL aliquots of 10^7, 10^6, 10^5, and 10^4CFU/mL E. coli (ATCC #8739) or S. aureus (ATCC #6538) solutions. Water was used as a negative control. The dye color was rapidly discharged when contaminated by both types of bacteria, but more rapidly for the S. aureus. It was later determined that while both bacteria solutions were indeed at 10^7 CFU/mL concentrations, the actual concentration of the S. aureus solution was 7×10^7 CFU/mL compared to 1×10^7 CFU/mL for the E. coli solution.

[6] = system: S. aureus (ATCC #6538); experiment: as above; conditions: paper brush-coated with 80 mg/10 mL acetonitrile; 100 μL aliquots of 10^7 to 10^4 CFU/mL
Description: as §1

[7] = system: S. aureus; experiment: Reichardt's dye coated self-adhesive stickers, transfer of bacteria by gloved hand; conditions: 160 mg/10 mL and 80 mg/10 mL acetonitrile coatings; 10^7 CFU/mL S. aureus
Description: A sheet of paper self-adhesive stickers (Avery-Dennison) was also brush-coated with two different concentrations of Reichardt's dye solution (160 mg/10 mL acetonitrile, 80 mg/10 mL acetonitrile). The stickers were applied to the lid and latch mechanism of a Huggies® Wet Wipes box. A gloved hand was used to transfer 10^7 CFU/mL S. aureus to the surface of the stickers.

[8] = De-colorization by acid (model of microbial contamination) and reversal by strong base; assay type: physicochemical
Description: A CCI Multigloss yellow base pigment (available from Color Converting, Inc. of Hazleton, Pa.) was applied to a white SMS (spunbond/meltblown/spunbond) nonwoven material (available from Kimberly-Clark Corporation of Irving, Tex.) using a standard hand roller. The treated nonwoven was oven-dried at 100° C. for approximately five minutes. A solution of Reichardt's dye was prepared by mixing about 200 mg of Reichardt's dye (obtained from Sigma-Aldrich of St. Louis, Mo.) with approximately 5 g of octanol (obtained from Sigma-Aldrich). This solution was then applied in the shape of a “t” to the dried yellow pigment on the nonwoven material using a clean hand roller. A control material was prepared by applying the Reichardt's dye/octanol mixture in the “t” pattern to a sheet of untreated white SMS nonwoven material. The samples were again oven-dried at 100° C. for approximately five minutes. In previous studies, it has been discovered that strong acids can also cause de-colorization of the dye in a manner that is representative of microbial contamination. Thus, strong acids are sometimes used to model the reaction of a microbe for initial experiments. A drop of pH 2 Aldrich buffer was applied to both the control and test substrates in three places and allowed to react for three minutes. […] An observation was made that the yellow color became even more visible as time passed (presumably due to the complete de-colorization of all dye molecules in the area of the drop as the acid dried).
This experiment illustrated the ability of a strong base to reverse decolorization of Reichardt's dye. Several drops of Reichardt's dye (160 mg in 10 ml of acetonitrile) were pipetted onto a SCOTT® towel and allowed to dry. […] The blue/purple color of Reichardt's dye returned after the 1 N NaOH was added.

[9] = system: aged chicken juice known to have a high bacterial count; experiment: Dye coating on ceramic surface with and without TWEEN 80, drop of aged chicken juice; conditions: 80 mg/10 mL acetonitrile with TWEEN 80 (200 μL)
Description: A solution of Reichardt's dye (80 mg/10 mL acetonitrile) and TWEEN® 80 (200 μL) polyoxyethylene surfactant (from Fischer Scientific, Pittsburgh, Pa.) was prepared. This solution was then used to coat a ceramic surface and allowed to air dry. A second solution of Reichardt's dye (80 mg/10 mL acetonitrile) without surfactant was placed on the surface and allowed to air dry as well. After drying, a drop of aged chicken juice known to have a high bacterial count was placed on each coating area. […] Furthermore, the addition of TWEEN® surfactant allowed for easy removal of the dye from the surface.

[10] = system: S. aureus; experiment: Reichardt's dye coatings from different solvents on towels, S. aureus aliquots; conditions: for color change of coating: 100 μl S. aureus
Description: The behavior of Reichardt's dye coatings made using various different solvents was evaluated. Solutions of Reichardt's dye in acetonitrile, isopropanol, and xylenes were prepared and the solutions were used to coat SCOTT® kitchen rolls towels and allowed to air-dry.

[11] = Reichardt's dye/TMB coated towel, dilute bleach solution; assay type: physicochemical; conditions: mixture of Reichardt's dye and TMB on SCOTT paper towel
Excerpt: A mixture of Reichardt's dye and 3,3′,5,5′-tetramethylbenzidine (TMB) was coated onto a SCOTT® paper towel and allowed to air-dry.

[12] = system: E. coli bacteria; experiment: Reichardt's dye/TMB coated towel, E. coli suspension drop-wise; conditions: coating of Reichardt's dye and TMB on SCOTT paper towel
Excerpt: Additionally, a SCOTT® paper towel having a coating of Reichardt's dye and TMB chemistries was exposed to suspension of E. coli bacteria drop-wise. The towel area that came in contact with the bacteria decolorized to a white spot in less than 10 seconds.

SMILES: Cc1ccc(Nc2ccc(Nc3ccc(C)cc3S(=O)(=O)[O-])c3c2C(=O)c2ccccc2C3=O)c(S(=O)(=O)[O-])c1.[Na+].[Na+] [Acid Green 25]
- sensitivity to microbes [1]: fairly microbe-insensitive

SMILES: CCCCCCCCCCCCCCCCCCCCCC[n+]1ccc(C=Cc2ccc(O)cc2)cc1.[Br-] [1-docosyl-4-(4-hydroxystyryl)-pyridinium bromide]
- color change ([2]; orange-yellow spots on cotton fabric): color change to very pale yellow
- color change ([2]; pinkish-orange areas (dye + NaOH soln.) on cotton): color change from pinkish-orange to very pale yellow

SMILES: COc1cc(/C=C/c2cc[n+](C)cc2)ccc1[O-] [N-methyl merocyanine dye]
- color change ([3]; urine stored 24 hours at 37° C., approx. 1×10^5 CFU/ml expected): immediate color change from deep orange to pale yellow
- color change ([3]; urine stored 24 hours at 37° C., filtered through 0.2 micron filter (control)): did not cause a color change
- color change ([3]; urine stored 8 days, filtered through 0.2 micron filter (control)): did not cause a color change
- color change ([3]; urine stored at room temperature for 8 days): immediate color change from deep orange to pale yellow
- color change [4]: immediate color change from deep orange to pale yellow

SMILES: [O-]c1c(-c2ccccc2)cc(-[n+]2c(-c3ccccc3)cc(-c3ccccc3)cc2-c2ccccc2)cc1-c1ccccc1 [Reichardt's dye, 4-(2,4,6-triphenylpyridinium-1-yl)-2,6-diphenylphenolate]
- time of de-colorization [5]: < 1 min
- time of de-colorization [6]: < 1 min
- color discharge of coated stickers [7]: rapidly de-colorized
- color change on acid ([8]; 160 mg in 10 ml acetonitrile on SCOTT towel, acetic acid and Aldrich buffer pH 2.0): rapid de-colorization
- reversal of decolorization by base ([8]; drop of 1 N NaOH on acid-decolorized spots): rapid re-colorization
- de-colorization revealing underlying pigment ([8]; drop of pH 2 Aldrich buffer on SMS nonwoven over yellow pigment, three minutes): underlying yellow color was clearly visible
- de-colorization faster than area without TWEEN surfactant [9]: 20 to 30 s
- color change of coating ([10]; acetonitrile solution-based coating): rapid de-colorization
- decolorization in response to microbial contamination ([10]; isopropanol as solvent, dye concentration adjusted): readily and easily observed
- color change of coating ([10]; isopropanol solution-based coating): No visible color change
- color change of coating ([10]; xylenes solution-based coating): No visible color change
- color response to bleach [11]: de-colorizing
- time to decolorize to a white spot [12]: less than 10 seconds

SMILES: Cc1cc(-c2cc(C)c(N)c(C)c2)cc(C)c1N [TMB, 3,3′,5,5′-tetramethylbenzidine]
- color response to bleach [11]: turning orange/yellow color
- bleach indicator color development on bacteria [12]: No orange/yellow color was observed to develop
